# Experimental data: ChEMBL document CHEMBL1147611, “Anti-AIDS agents. Part 57: Actein, an anti-HIV principle from the rhizome of Cimicifuga racemosa (black cohosh), and the anti-HIV activity of related saponins” (Bioorg Med Chem Lett, 2004)
# System: not listed separately
# Assay: Therapeutic index of compound was determined by the ratio of IC50 to that of EC50
# Assay type: cell-based
# Conditions: human, H9 cells; read-out: TI
row,SMILES,selectivity ratio
1,C[C@@H]1C[C@H]2O[C@@]3(O[C@@H]2C(C)(C)O)[C@H](O)[C@@]2(C)[C@@H]4CC[C@H]5C(C)(C)[C@@H](O[C@@H]6OC[C@@H](O)[C@H](O)[C@H]6O)CC[C@@]56C[C@@]46CC[C@]2(C)[C@@H]13,30.2
2,CC(=O)O[C@@H]1C[C@@]23C[C@@]24CC[C@H](OC2OCC(O)C(O)C2O)C(C)(C)[C@@H]4CC[C@H]3[C@]2(C)C[C@@H]3O[C@]4(C[C@@H](C)[C@@H]3[C@@]12C)OC[C@]1(C)O[C@H]41 (some centres undefined),30.2
3,CC(=O)OC1COC(O[C@H]2CC[C@]34C[C@]35CC[C@]3(C)[C@@H]([C@H](C)C[C@@H](OC(C)=O)[C@@H]6OC6(C)C)C(=O)[C@H](OC(C)=O)[C@@]3(C)[C@@H]5CC[C@H]4C2(C)C)C(OC(C)=O)C1OC(C)=O (some centres undefined),30.2
4,CC(=O)O[C@@H]1C[C@@]23C[C@@]24CC[C@H](OC2OCC(O)C(O)C2O)C(C)(C)[C@@H]4CC[C@H]3[C@]2(C)C[C@@H]3O[C@]4(C[C@@H](C)[C@@H]3[C@@]12C)O[C@H](O)[C@@]1(C)O[C@@H]41 (some centres undefined),144
5,C[C@H]1[C@H]2[C@H](C[C@@]3(C)C4=CC[C@H]5C(C)(C)[C@@H](OC6OCC(O)C(O)C6O)CC[C@@]56C[C@@]46CC[C@]23C)O[C@@]2(O)[C@@H]1OC(C)(C)[C@H]2O (some centres undefined),30.2
6,C[C@@H]1C[C@]2(C[C@@H](C)[C@H]3[C@@H](C[C@@]4(C)C5=C(CC[C@]34C)[C@@]3(C)CC[C@H](O[C@@H]4O[C@@H](O[C@@H]6OC[C@H](O)[C@H](O)[C@@H]6O[C@@H]6O[C@@H](CO)[C@@H](O)[C@H](O)[C@@H]6O[C@@H]6O[C@@H](C)[C@H](O)[C@H](O)[C@H]6O)[C@@H](O)[C@H](O)[C@@H]4O)[C@@](C)(CO)[C@@H]3CC5)O2)OC1=O,30.2
7,C[C@H]1[C@H]2[C@H](C[C@@]3(C)[C@@H]4CC[C@H]5C(C)(C)[C@@H](OC6OCC(O)C(O)C6O)CC[C@@]56C[C@@]46CC[C@]23C)O[C@@]2(O)[C@@H]1OC(C)(C)[C@H]2O (some centres undefined),30.2

# System: H9
# Assay: Effective concentration required to suppress HIV replication in H9 lymphocytes was determined; Moderate activity
# Assay type: functional, cell-based, Homo sapiens
# Conditions: not given
row,EC50,SMILES
1,Moderate,C=CC(C)(O)CC/C=C(\CO)C(=O)O[C@H]1[C@H](O[C@@H]2[C@H](OC(=O)[C@]34CCC(C)(C)C[C@H]3C3=CC[C@@H]5[C@@]6(C)CC[C@H](O[C@H]7O[C@@H](CO[C@@H]8OC[C@H](O)[C@@H](O)[C@@H]8O[C@@H]8OC[C@@H](O)[C@H](O)[C@@H]8O)[C@@H](O)[C@H](O)[C@@H]7O)C(C)(C)[C@@H]6CC[C@@]5(C)[C@]3(C)CC4)O[C@@H](COC(=O)/C(=C/CC[C@](C)(C=C)O[C@@H]3OC[C@@H](O)[C@H](O)[C@@H]3OC(=O)/C(=C/CC[C@@](C)(O)C=C)CO)CO)[C@@H](O)[C@@H]2O)O[C@@H](C)[C@H](O[C@@H]2OC[C@@H](O)[C@H](O[C@@H]3OC[C@@H](O)[C@H](O)[C@@H]3O)[C@@H]2O)[C@@H]1O (some centres undefined)
2,Moderate,C=CC(C)(O)CC/C=C(\CO)C(=O)O[C@H]1[C@@H](OC[C@@H]2O[C@@H](OC(=O)[C@]34CCC(C)(C)C[C@H]3C3=CC[C@@H]5[C@@]6(C)CC[C@H](O[C@@H]7O[C@@H](CO[C@@H]8OC[C@H](O)[C@H](O)[C@@H]8O[C@@H]8OC[C@@H](O)[C@H](O)[C@@H]8O)[C@@H](O)[C@H](O)[C@@H]7O)C(C)(C)[C@@H]6CC[C@@]5(C)[C@]3(C)C[C@H]4O)C(O[C@@H]3O[C@@H](C)[C@H](O[C@@H]4OC[C@@H](O)[C@H](O[C@@H]5OC[C@@H](O)[C@H](O)C5O)[C@@H]4O)[C@H](O)[C@H]3O)[C@@H](O)[C@@H]2O)O[C@@H](C)[C@H](O)[C@@H]1OC(=O)/C(=C/CCC(C)(O)C=C)CO (some centres undefined)
3,Moderate,C=CC(C)(O)CC/C=C(\CO)C(=O)OC[C@@H]1O[C@@H](OC(=O)[C@]23CCC(C)(C)C[C@H]2C2=CC[C@@H]4[C@@]5(C)CC[C@H](O[C@@H]6O[C@@H](CO[C@@H]7OC[C@H](O)[C@H](O)[C@@H]7O[C@@H]7OC[C@@H](O)[C@H](O)[C@@H]7O)[C@@H](O)[C@H](O)[C@@H]6O)C(C)(C)[C@@H]5CC[C@@]4(C)[C@]2(C)CC3)C(O[C@@H]2O[C@@H](C)[C@H](O[C@@H]3OC[C@@H](O)[C@H](O[C@@H]4OC[C@@H](O)[C@H](O)C4O)[C@@H]3O)[C@H](O)[C@H]2O)[C@@H](O)[C@@H]1O (some centres undefined)
4,Moderate,C=CC(C)(O)CC/C=C(\CO)C(=O)OC[C@@H]1O[C@@H](OC(=O)[C@]23CCC(C)(C)C[C@H]2C2=CC[C@@H]4[C@@]5(C)CC[C@H](O[C@@H]6O[C@@H](CO[C@@H]7OC[C@H](O)[C@H](O)[C@@H]7O[C@@H]7OC[C@@H](O)[C@H](O)[C@@H]7O)[C@@H](O)[C@H](O)[C@@H]6O)C(C)(C)[C@@H]5CC[C@@]4(C)[C@]2(C)C[C@H]3O)C(O[C@@H]2O[C@@H](C)[C@H](O[C@@H]3OC[C@@H](O)[C@H](O[C@@H]4OC[C@@H](O)[C@H](O)C4O)[C@@H]3O)[C@H](O)[C@H]2O)[C@@H](O)[C@@H]1O (some centres undefined)

# System: H9
# Assay: Effective concentration required to suppress HIV replication in H9 lymphocytes was determined
# Assay type: functional, cell-based
# Conditions: Homo sapiens
row,SMILES,EC50
1,CC(=O)O[C@@H]1C[C@@]23C[C@@]24CC[C@H](OC2OCC(O)C(O)C2O)C(C)(C)[C@@H]4CC[C@H]3[C@]2(C)C[C@@H]3O[C@]4(C[C@@H](C)[C@@H]3[C@@]12C)O[C@H](O)[C@@]1(C)O[C@@H]41 (some centres undefined),0.375 µg/mL
2,C[C@@H]1CC[C@@]2(OC1)O[C@H]1C[C@H]3[C@@H]4CC[C@@H]5C[C@@H](O[C@@H]6O[C@@H](CO)[C@@H](O)[C@H](O)[C@@H]6O[C@@H]6O[C@H](C)[C@H](O)[C@@H](O)[C@@H]6O)CC[C@]5(C)[C@H]4CC[C@]3(C)[C@H]1[C@@H]2C,< 0.25 µg/mL
3,C[C@@H]1CC[C@@]2(OC1)O[C@H]1C[C@H]3[C@@H]4CC[C@@H]5C[C@@H](O[C@@H]6O[C@@H](CO)[C@H](O)[C@H](O)[C@@H]6O[C@@H]6O[C@@H](CO)[C@@H](O)[C@H](O)[C@@H]6O)CC[C@]5(C)[C@H]4CC[C@]3(C)[C@H]1[C@@H]2C,< 0.25 µg/mL
